# In publication PMC5238392, “Origin of anti-tumor activity of the cysteine-containing GO peptides and further optimization of their cytotoxic properties” (Scientific Reports, 2017):
# Experiments:
# Type in all cases: cell-based, human
# HT-1080 cells [1] = assay: carboxy-H2DCFDA time-dependent intracellular ROS, HT-1080; conditions: suspended HT-1080; 5 μM
# Description: In broad terms, apoptosis is classified into two fundamental modes: mitochondrial pathway and death receptor pathway. In the former mechanism, apoptotic signals lead to a loss of mitochondrial membrane potential, termination of mitochondrial ATP synthesis, overproduction of reactive oxygen species (ROS) and their release into cytosol along with a number of pro-apoptotic proteins that are normally confined to the intermembrane space of the mitochondria. To determine whether this mechanism is relevant for GO-203-induced cell death, we have analyzed the time variation of mitochondrial membrane potential and cellular level of ROS over the time interval of 2 h following the addition of the peptide. […] The fluorescence was measured concurrently with the side angle light scatter.
# To confirm this finding we have also used the carboxy-H2DCFDA probe of the general oxidative stress. […] The results of the ROS assay in HT-1080, where the intensity of fluorescence signal reflects the level of intracellular oxidants, are shown in Fig. 6B. […]
# (§1) The cells were seeded into 35-mm Nunc culture dishes (Thermo Scientific, USA) at 1.2 × 10^5 cells per dish and allowed to attach for 24 h. […] After that GO-203 was added directly to the suspension and cell fluorescence was measured by flow cytometry at multiple time points during the following 2 hours. […] Cell fluorescence was then immediately measured by flow cytometry. […]
# HT-1080 cells [2] = assay: Rhodamine 123 mitochondrial membrane potential, HT-1080
# Description: In broad terms, apoptosis is classified into two fundamental modes: mitochondrial pathway and death receptor pathway. In the former mechanism, apoptotic signals lead to a loss of mitochondrial membrane potential, termination of mitochondrial ATP synthesis, overproduction of reactive oxygen species (ROS) and their release into cytosol along with a number of pro-apoptotic proteins that are normally confined to the intermembrane space of the mitochondria. To determine whether this mechanism is relevant for GO-203-induced cell death, we have analyzed the time variation of mitochondrial membrane potential and cellular level of ROS over the time interval of 2 h following the addition of the peptide. Toward this goal, the cells were preloaded with Rhodamine 123 or carboxy-H2DCFDA fluorescent dyes, then washed, suspended in the growth medium, and treated with GO-203. The fluorescence was measured concurrently with the side angle light scatter.
# Only at 90–100 min we observe a moderate decrease of the fluorescence signal from the treated cells, which indicates the drop in mitochondrial membrane potential. As discussed above, the onset of apoptosis in HT-1080 occurs considerably earlier than that. […] Therefore we assume that mitochondrial membrane permeabilization (MMP) occurs relatively late in the game and is unlikely to be a key element of the GO-203-induced apoptosis.
# Finally, the same experimental scheme as described above for H2DCFDA/DCFDA measurements was also used with Rhodamine 123. […] The same observation has been made for ZR-75-1.
# as §1
# HT-1080 cells [3] = assay: H2DCFDA intracellular ROS measurement, HT-1080; conditions: 5 μM, 30 min after application
# Experimental: Having established these premises, we repeated the measurements using the ROS-sensitive probe H2DCFDA instead of DCFDA. We have observed small, but statistically significant difference between the HT-1080 cells treated by GO-203 and control cells. Specifically, 30 min after application of the peptide the fluorescence signal from the treated cells was ca. 20% lower than the control, 82 ± 6 vs. 100 ± 7 (arbitrary units). The drop in fluorescence from cells that have been treated with GO-203 should be unequivocally attributed to the decreased level of ROS. The effect is small and unlikely to be the source of GO-203 cytotoxic activity. […] The detected drop in ROS level was below the level of statistical significance, 98 ± 3 vs. 100 ± 11 (see Fig. S3). […]
# as §1
# Cell fluorescence was measured using CytoFLEX (Beckman Coulter, USA) flow cytometer equipped with 3 lasers (405, 488 and 633 nm). […] Mean fluorescence intensity from 10,000 cells was acquired. […]
# [4] = suspended HT-1080, one-time 5 μM dose
substance,measurement,setting,value
"[R]9CQCRRKN [GO-203, in clinical trials]",Time at which carboxy-H2DCFDA fluorescence (ROS) begins to diverge from control,HT-1080 cells [1],80 to 90 min
same,Time at which elevated level of ROS is evident,HT-1080 cells [1],120 min
same,Mitochondrial membrane potential (Rhodamine 123),"HT-1080 cells [2]; HT-1080, 30 min after application, same scheme as H2DCFDA/DCFDA measurements",fully maintained
same,Time for which mitochondrial retention of Rhodamine 123 remains the same as control,HT-1080 cells [2]; [4],at least 70 min
same,Time of moderate decrease of Rhodamine 123 fluorescence (drop in mitochondrial membrane potential),HT-1080 cells [2]; [4],90 to 100 min
same,Decrease of H2DCFDA fluorescence signal versus control,HT-1080 cells [3],ca. 20%
same,H2DCFDA fluorescence signal (ROS level),"HT-1080 cells [3]; control 100 ± 7, mean and SD",82 ± 6 arbitrary units
